Laboratory results: patent US8637685B2, “Schweinfurthin analogues” (University of Iowa Research Foundation, priority 2008, dated 2014)
Values belong to the compound of their own block, whether it stands above or below them.

Legend:
[1] = tested on: SF-295 vs. A549 cell lines; assay: Test C three pronged testing scheme for schweinfurthin-like activity; format: cell-based, human; conditions: for schweinfurthin-like activity: three pronged scheme: MTT SF-295, MTT A549, morphology
From the text: (§1) The National Cancer Institute 60 human tumor cell line anti-cancer assay has been used for indicating the schweinfurthin-like activity of various analogues. Additionally, a three pronged approach that allows a more rapid turn around can be used. This three pronged testing scheme involves 1) MTT assay in schweinfurthin sensitive human glioma derived SF-295 cell line; 2) MTT assay in the schweinfurthin resistant human non-small cell lung cancer derived cell line A549; and 3) microscopic observation of cell morphology changes at 24 and 48 hours. Compounds displaying schweinfurthin-like activity show a dramatic change in cell morphology at concentrations consistent with anti-cancer activity. This three pronged testing scheme is a very simple method that has successfully identified compounds with and without schweinfurthin-like activity. Accordingly, in one embodiment the invention provides a method for identifying a compound with schweinfurthin-like activity comprising, subjecting the compound to 1) an MTT assay in a schweinfurthin sensitive human glioma derived SF-295 cell line; 2) an MTT assay in the schweinfurthin resistant human non-small cell lung cancer derived cell line A549; and 3) a microscopic observation of cell morphology changes at one or more preselected time points (e.g. at about 24 or 48 hours).

A-549 cells = assay: Test A cellular morphology (phalloidin/DAPI staining), A-549; format: cell-based, human
Experimental: (§2) Cell Culture—SF-295 cells were maintained in RPMI 1640 supplemented with 10% fetal calf serum, and penstreptamycin. A-549 cells were maintained in F-12 media with 10% fetal calf serum and penstreptamycin. Both cell lines were incubated at 37° C. and 5% CO2.
(§3) Cellular Morphology—Cells were plated on sterilized coverslips in 6-well plates and allowed to reach 65% confluency before treatment with indicated compounds. At the conclusion of the treatment interval, cells were rinsed and fixed with 3.7% formaldehyde for 15 minutes. After subsequent rinses in PBS, cells were permeabilized with 0.2% triton X-100 for 4 minutes and rinsed in PBS. Cells were then incubated with 1% BSA for 30 minutes before incubation with phalloidin stain (Molecular Probes, Eugene, Oreg.) for 20 minutes. At the completion of staining interval, cells were rinsed and mounted using Vectashield mounting media containing DAPI (Vector laboratories, Inc., Burlingame, Calif.). Slides were imaged using a Bio-Rad Multi-photon microscope and processed using Image-J software.

SF-295 cells = assay: Test A cellular morphology (phalloidin/DAPI staining), SF-295; format: cell-based, human
Experimental: as §2, §3

[2] = Fluorescence properties of target compounds (Table 1); format: physicochemical; conditions: for Absorbtion Maximum / Emission Maximum / Extinction Coefficient: Concentration 50 uM; for Extinction Coefficient: in M-1 cm-1 (unit assumed)
From the text: This shift to the green region for the fluorescence emission allows cellular studies on these compounds without any interference from autofluroescence.

SF-295 cell line = assay: Test C MTT assay in schweinfurthin sensitive SF-295 cell line; format: cell-based, human
From the text: as §1

A549 cell line = assay: Test C MTT assay in schweinfurthin resistant A549 cell line; format: cell-based, human; conditions: A549 lung cancer line
From the text: as §1

[3] = Compound stability (no method given); format: physicochemical

SMILES: COc1cc(/C=C/c2cc3c(c(OC)c2)O[C@]2(C)C[C@@H](O)[C@@H](O)C(C)(C)[C@H]2C3)cc(O)c1/C=C/c1ccc(N)cc1 [Compound 237]
potency relative to 3-deoxyschweinfurthin B ([1]; cell line not specified): neither of the amine substituted analogues (227 and 237) were more potent than 3-deoxyschweinfurthin B
activity relative to 3-deoxy compound 227 ([1]; dihydroxylated A-ring vs. 3-deoxy): not significantly more active than the 3-deoxy compound 227
schweinfurthin-like activity [1]: did show all of the hall marks of schweinfurthin like activity

SMILES: C[C@@H](N)[C@H]1CC[C@H](C(=O)Nc2ccncc2)CC1 [Compound Y-27632]
cell morphology (A-549 cells; 10 μM): induces ruffled F-actin at the edges of the A-549 cells
cell morphology (SF-295 cells; 10 μM): caused jagged F-actin at the periphery and long slender projections to form

SMILES: COc1cc(C=Cc2cc(O)c(CC=C(C)CCC=C(C)C)c(O)c2)cc2c1OC1(C)CCC(O)C(C)(C)C1C2 (stereo not shown) [3-deoxyschweinfurthin B]
cell morphology (A-549 cells; 500 nM, 24 hours or 48 hours): does not induce a morphologic change
cell morphology (SF-295 cells; 500 nM, 24 hours): morphologic characteristics similar to control cells
cell morphology (SF-295 cells; 500 nM, 48 hours): characteristic changes in cell morphology
cell morphology changes induced by schweinfurthins (SF-295 cells; time points beyond 24 hours): a decrease in cell area and a reduction in F-actin

SMILES: COc1cc(/C=C/c2cc3c(c(OC)c2)O[C@]2(C)C[C@@H](O)[C@@H](O)C(C)(C)[C@H]2C3)cc(O)c1/C=C/c1ccc([N+](=O)[O-])cc1 [Compound 235]
stokes shift compared with amine compounds 227, 232 and 237 [2]: larger stokes shifts than the amine compounds

Absorbtion Maximum [2]: 426
Emission Maximum [2]: 593
Extinction Coefficient [2]: 26500
SMILES: COc1cc(/C=C/c2cc(O)c(/C=C/c3ccc([N+](=O)[O-])cc3)c(O)c2)cc2c1O[C@]1(C)CC[C@@H](O)C(C)(C)[C@H]1C2 [Compound 219]
activity relative to standard 3-deoxyschweinfurthin B (SF-295 cell line; SF-295 cell line): almost identical activity to the standard 3-deoxyschweinfurthin B
potency rank among compounds tested (SF-295 cell line; Test C scheme): most potent of these compounds
stokes shift compared with amine compounds 227, 232 and 237 [2]: larger stokes shifts than the amine compounds
potency relative to 3-deoxyschweinfurthin B (A549 cell line): almost an order of magnitude more potent than 3-deoxyschweinfurthin B
schweinfurthin-like activity [1]: still shows the significant drop in activity in the A549 line vs. the SF-295 line

Absorbtion Maximum [2]: 429
Emission Maximum [2]: 557
Extinction Coefficient [2]: 17902
stability relative to the parent resorcinol [3]: much improved stability
SMILES: COc1cc(/C=C/c2cc3c(c(OC)c2)O[C@]2(C)CC[C@@H](O)C(C)(C)[C@H]2C3)cc(O)c1/C=C/c1ccc([N+](=O)[O-])cc1 [Compound 225]
activity relative to the parent resorcinol (SF-295 cell line; assay not specified): only slightly diminished activity
stokes shift compared with amine compounds 227, 232 and 237 [2]: larger stokes shifts than the amine compounds
schweinfurthin-like activity [1]: displayed activity as expected
